PMC11578313, “Miniaturized Modular Click Chemistry‐enabled Rapid Discovery of Unique SARS‐CoV‐2 M^pro Inhibitors With Robust Potency and Drug‐like Profile” (Advanced Science, 2024)
Like-named read-outs stand apart in the source and are kept apart here.

Assays:
MRC‐5 cells = conditions: human
in vivo = conditions: ICR, mouse, po, p.o. 10 mg kg^−1 with 20 mg kg^−1 ritonavir, ICR mice, n = 3
[1] = test system: SARS‐CoV‐2 (hCoV‐19/Korea/KCDC06/2020, wild type); test: microbe, parasite or virus in culture; type: cell-based
HCoV‐229E = test: microbe, parasite or virus in culture; type: cell-based; conditions: Human coronavirus 229E, MRC5, read-out: EC50 ± SD, HCoV‐229E
HCoV‐OC43 = test: microbe, parasite or virus in culture; type: cell-based; conditions: Betacoronavirus 1, OC43, MRC5, read-out: EC50 ± SD, HCoV‐OC43
HCoV‐NL63 = test: microbe, parasite or virus in culture; type: cell-based; conditions: Human coronavirus NL63, LLC-MK2, read-out: EC50 ± SD, HCoV‐NL63
in vitro [2] = conditions: African green monkey
in vitro [3] = conditions: human
SARS‐CoV‐2 = test: microbe, parasite or virus in culture; type: cell-based; conditions: Severe acute respiratory syndrome coronavirus 2, Vero
in vitro [4] = conditions: human; remark: listed apart in the source
MERS‐CoV = test: microbe, parasite or virus in culture; type: cell-based; conditions: Middle East respiratory syndrome-related coronavirus, Huh-7, read-out: EC50 ± SD, MERS‐CoV
in vitro [5] = conditions: rhesus monkey
[6] = test system: SARS‐CoV‐2 Gamma (hCoV‐19/Korea/KDCA95637/2021); test: microbe, parasite or virus in culture; type: cell-based; conditions: Severe acute respiratory syndrome coronavirus 2; Calu‐3; read-out: EC50 ± SD, SARS‐CoV‐2 Gamma
[7] = test system: SARS‐CoV‐2 Delta (hCoV‐19/Korea/KDCA119861/2021); test: microbe, parasite or virus in culture; type: cell-based; conditions: Severe acute respiratory syndrome coronavirus 2; Calu‐3; read-out: EC50 ± SD, SARS‐CoV‐2 Delta
[8] = test system: SARS‐CoV‐2 Omicron (hCoV‐19/Korea/KDCA447321/2021); test: microbe, parasite or virus in culture; type: cell-based; conditions: Severe acute respiratory syndrome coronavirus 2, Calu-3, read-out: EC50 ± SD, SARS‐CoV‐2 Omicron

With CC(C)(C)[C@H](NC(=O)C(F)(F)F)C(=O)N1C[C@H]2[C@@H]([C@H]1C(=O)N[C@H](C#N)C[C@@H]1CCNC1=O)C2(C)C [Nirmatrelvir, reference compound] the CC50 (MRC‐5 cells) was over 100 µM, the Cmax (in vivo; 10 mg/kg, Cmax, p.o. in combination with ritonavir) was 7450 ± 715 ng/mL and the MRT (in vivo; 10 mg/kg, MRT0‐t, p.o. in combination with ritonavir) was 1.55 ± 0.051 h. The MRT (in vivo; 10 mg/kg, MRT0‐∞, p.o. in combination with ritonavir) was 1.55 ± 0.055 h, the half-life (in vivo; 10 mg/kg, t1/2, p.o. in combination with ritonavir) was 0.692 ± 0.204 h and the AUC (in vivo; AUC0‐t, p.o. in combination with ritonavir) was 14600 ng·h/mL. For the same compound, the EC50 ([1]; Severe acute respiratory syndrome coronavirus 2, Calu-3, read-out: EC50, anti‐SARS‐CoV‐2 activity in Calu‐3 cells (Figure 3B)) was 1.95 µM, the EC50 ([1]; Severe acute respiratory syndrome coronavirus 2, Calu-3, read-out: EC50 ± SD, Calu‐3 cells, with P‐gp inhibitor) was under 0.046 µM and the EC50 ([1]; Severe acute respiratory syndrome coronavirus 2, Calu-3, read-out: EC50 ± SD, Calu‐3 cells, without P‐gp inhibitor) was 1 ± 0.031 µM. For the same compound, the EC50 ([1]; Severe acute respiratory syndrome coronavirus 2, Calu-3, read-out: EC50 ± SD, SARS‐CoV‐2 Wild‐type) was 2.78 µM, the EC50 (HCoV‐229E) was 0.378 µM and the EC50 (HCoV‐OC43) was under 0.046 µM. For the same compound, the EC50 (HCoV‐NL63) was over 100 µM, the CC50 at 2 day (in vitro [2]) was over 100 µM and the CC50 (in vitro [3]) was over 100 µM. It also gave a CC50 at 2 day (in vitro [3]; CC50 (Table 3), Calu‐3 cells) of over 100 µM, a CC50 at 2 day (in vitro [3]; CC50, Calu‐3 cells, MTT assay) of over 100 µM and an EC50 (SARS‐CoV‐2; read-out: EC50 ± SD, Vero cells, with P‐gp inhibitor) of under 0.046 µM. For the same compound, the EC50 (SARS‐CoV‐2; read-out: EC50 ± SD, Vero cells, without P‐gp inhibitor) was 2.08 ± 0.214 µM, the CC50 (in vitro [4]) was over 100 µM and the EC50 (MERS‐CoV) was 0.058 µM. It also gave a CC50 (in vitro [5]) of over 100 µM, an EC50 [6] of 3.43 ± 0.519 µM and an EC50 [7] of 3.7 ± 0.598 µM. For the same compound, the EC50 [8] was 3.39 ± 0.245 µM.
